In ChEMBL document CHEMBL4613277, “Improving the Potency of N-Aryl-2,5-dimethylpyrroles against Multidrug-Resistant and Intracellular Mycobacteria” (ACS Med Chem Lett, 2020):
≈ marks a conversion by molar mass, not a printed value.

Legend:
[1] = system: Mycobacterium tuberculosis; assay: Antimycobacterial activity against Mycobacterium bovis BCG; type: functional; conditions: variant bovis BCG
[2] = system: Mycobacterium tuberculosis; assay: Antimycobacterial activity against Mycobacterium bovis BCG assessed as reduction in bacterial growth incubated for 48 hrs by HT-SPOTi assay; type: functional; conditions: variant bovis BCG

Cc1cc(CNC2CCCCC2)c(C)n1-c1ccc(Cl)cc1
MIC [1]: 0.4 µg/mL (≈ 1.26 µM)

Cc1cc(CNCc2ccccc2)c(C)n1-c1ccc(Cl)cc1
MIC [1]: 0.5 µg/mL (≈ 1.54 µM)

Cc1cc(CNCc2ccccc2)c(C)n1-c1ccc(F)cc1
MIC [1]: 0.5 µg/mL (≈ 1.62 µM)

COc1ccc(-n2c(C)cc(CNC3CCCCC3)c2C)cc1
MIC [1]: 0.25 µg/mL (≈ 0.8 µM)

Cc1cc(CNCc2ccccc2)c(C)n1-c1ccccc1C(F)(F)F
MIC [1]: 1 µg/mL (≈ 2.79 µM)

Cc1cc(CNC2CCCCC2)c(C)n1-c1cc(Cl)cc(Cl)c1
MIC [1]: 0.5 µg/mL (≈ 1.42 µM)

Cc1cc(CNC(C)c2ccccc2)c(C)n1-c1ccc(Cl)cc1 (stereo not given)
MIC [1]: 0.5 µg/mL (≈ 1.48 µM)

Cc1cc(CN[C@H]2C[C@@H]3CC[C@H]2C3)c(C)n1-c1ccc(Cl)cc1
MIC [1]: 0.25 µg/mL (≈ 0.76 µM)

Cc1cc(CNC2CCCCC2)c(C)n1-c1ccccc1C(F)(F)F
MIC [1]: 2 µg/mL (≈ 5.71 µM)

Cc1cc(CNCc2ccccc2)c(C)n1-c1ccc(C(C)C)cc1
MIC [1]: 1 µg/mL (≈ 3.01 µM)

Cc1ccc(C)c(-n2c(C)cc(CNC3CCCCC3)c2C)c1
MIC [1]: 0.5 µg/mL (≈ 1.61 µM)

Cc1cc(CNC2CCCCC2)c(C)n1-c1ccccc1F
MIC [1]: 0.5 µg/mL (≈ 1.66 µM)

Cc1cc(CNC2CCCCC2)c(C)n1-c1ccc(C(C)C)cc1
MIC [1]: 0.25 µg/mL (≈ 0.77 µM)

Cc1cc(CNC2CCCCC2)c(C)n1-c1ccc(C#N)cc1
MIC [1]: 1 µg/mL (≈ 3.25 µM)

Cc1cc(CNC2CCCCC2)c(C)n1-c1ccc(F)cc1
MIC [1]: 0.5 µg/mL (≈ 1.66 µM)

Cc1cc(CNCC2CCCCC2)c(C)n1-c1ccc(Cl)cc1
MIC [1]: 0.125 µg/mL (≈ 0.378 µM) | MIC [2]: 1.95 µg/mL (≈ 5.89 µM)

Cc1cc(CNCCNc2ccccc2)c(C)n1-c1ccc(Cl)cc1
MIC [1]: 1 µg/mL (≈ 2.83 µM)

Cc1ccc(C)c(-n2c(C)cc(CNCc3ccccc3)c2C)c1
MIC [1]: 2 µg/mL (≈ 6.28 µM)

Cc1cc(CNCc2ccccc2)c(C)n1-c1cc(Cl)cc(Cl)c1
MIC [1]: 1 µg/mL (≈ 2.78 µM)
